Data on seven molecules can be found in ChEMBL document CHEMBL1135101, “Combinatorial synthesis of 3-(amidoalkyl) and 3-(aminoalkyl)-2-arylindole derivatives: discovery of potent ligands for a variety of G-protein coupled receptors” (Bioorg Med Chem Lett, 2002).

Structures are written as SMILES. Where only a bound is given, the exact number is not on record here.

The target in experiment [1] is C-C chemokine receptor type 5 (Homo sapiens) (UniProt P51681). Put plainly: Binding affinity towards CCR5 receptor.
In experiment [2] the target is C-C chemokine receptor type 2 (Homo sapiens) (UniProt P41597). The experiment is described as follows: Binding affinity towards CCR2 receptor.
For experiment [3], the target named is C-X-C chemokine receptor type 4 (Homo sapiens) (UniProt P61073). The experiment is described as follows: Binding affinity towards CXCR4 receptor.
Experiment [4] concerns the target T1, C-X-C chemokine receptor type 3 (Homo sapiens) (UniProt P49682).
T1 sequence (whole entry): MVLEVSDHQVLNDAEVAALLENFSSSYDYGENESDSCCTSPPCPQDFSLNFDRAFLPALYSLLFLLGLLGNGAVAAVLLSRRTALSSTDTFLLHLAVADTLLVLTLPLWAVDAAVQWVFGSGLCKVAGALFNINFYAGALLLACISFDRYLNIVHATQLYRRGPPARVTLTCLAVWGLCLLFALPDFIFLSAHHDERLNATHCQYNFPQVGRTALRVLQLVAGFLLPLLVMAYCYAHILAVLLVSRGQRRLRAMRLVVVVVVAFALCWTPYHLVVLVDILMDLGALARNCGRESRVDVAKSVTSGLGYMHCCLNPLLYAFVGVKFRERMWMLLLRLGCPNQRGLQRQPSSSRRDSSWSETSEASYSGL
Put plainly: Binding affinity towards CXCR3 receptor.

In experiment [5] the target is T2, C-C chemokine receptor type 3 (Homo sapiens) (UniProt P51677).
T2 sequence (whole entry): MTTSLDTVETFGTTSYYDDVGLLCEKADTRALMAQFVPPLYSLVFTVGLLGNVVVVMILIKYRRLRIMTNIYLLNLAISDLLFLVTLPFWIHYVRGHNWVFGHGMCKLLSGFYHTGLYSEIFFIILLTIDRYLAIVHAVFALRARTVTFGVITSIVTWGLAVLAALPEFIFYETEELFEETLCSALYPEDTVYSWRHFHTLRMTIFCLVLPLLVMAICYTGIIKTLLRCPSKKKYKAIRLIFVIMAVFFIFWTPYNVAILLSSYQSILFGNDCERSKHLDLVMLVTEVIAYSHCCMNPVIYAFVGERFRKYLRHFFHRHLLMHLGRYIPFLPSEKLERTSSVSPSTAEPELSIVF
The experiment is described as follows: Binding affinity towards CCR3 receptor.

Experiment [6] addresses T3, C-C chemokine receptor type 1 (Homo sapiens) (UniProt P32246).
T3 sequence (whole entry): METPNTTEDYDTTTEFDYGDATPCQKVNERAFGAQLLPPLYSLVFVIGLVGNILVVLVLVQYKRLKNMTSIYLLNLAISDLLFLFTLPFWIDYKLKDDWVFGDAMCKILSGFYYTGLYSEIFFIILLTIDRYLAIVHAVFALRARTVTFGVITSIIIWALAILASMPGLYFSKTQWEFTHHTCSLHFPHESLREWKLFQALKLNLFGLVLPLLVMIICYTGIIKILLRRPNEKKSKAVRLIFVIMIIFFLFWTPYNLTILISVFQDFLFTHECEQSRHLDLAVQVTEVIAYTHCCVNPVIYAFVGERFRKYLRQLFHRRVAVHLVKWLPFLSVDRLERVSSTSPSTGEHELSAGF
The experiment is described as follows: Binding affinity towards CCR1 receptor.

Experiment [7] deals with T4, Neuropeptide Y receptor type 1 (Homo sapiens) (UniProt P25929).
T4 sequence (whole entry): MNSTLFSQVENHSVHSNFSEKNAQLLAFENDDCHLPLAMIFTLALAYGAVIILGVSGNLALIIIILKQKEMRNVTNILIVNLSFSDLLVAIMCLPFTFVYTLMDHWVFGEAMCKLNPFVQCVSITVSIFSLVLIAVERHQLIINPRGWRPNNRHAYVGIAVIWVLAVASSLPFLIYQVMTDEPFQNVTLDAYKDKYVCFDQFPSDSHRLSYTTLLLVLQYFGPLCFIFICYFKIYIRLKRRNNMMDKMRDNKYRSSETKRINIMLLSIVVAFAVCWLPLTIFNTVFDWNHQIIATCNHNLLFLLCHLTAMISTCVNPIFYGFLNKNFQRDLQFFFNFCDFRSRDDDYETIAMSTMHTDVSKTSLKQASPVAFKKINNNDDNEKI
Put plainly: Binding affinity towards NPY1 receptor.

Experiment [8] deals with T5, Neuropeptide Y receptor type 5 (Homo sapiens) (UniProt Q15761).
T5 sequence (whole entry): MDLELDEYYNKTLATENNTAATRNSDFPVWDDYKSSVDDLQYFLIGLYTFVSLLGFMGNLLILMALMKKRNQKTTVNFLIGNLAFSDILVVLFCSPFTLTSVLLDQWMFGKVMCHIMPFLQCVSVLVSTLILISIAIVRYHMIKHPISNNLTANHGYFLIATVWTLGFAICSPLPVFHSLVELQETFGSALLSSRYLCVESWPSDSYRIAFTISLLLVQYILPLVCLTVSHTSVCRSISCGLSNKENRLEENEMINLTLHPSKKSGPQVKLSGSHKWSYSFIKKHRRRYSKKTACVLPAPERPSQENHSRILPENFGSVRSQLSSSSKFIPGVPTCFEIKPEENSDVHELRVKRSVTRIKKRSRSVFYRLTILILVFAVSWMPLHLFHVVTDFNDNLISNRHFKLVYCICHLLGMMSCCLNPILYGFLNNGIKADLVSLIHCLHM
Put plainly: Binding affinity towards NPY5 receptor.

Experiment [9] deals with T6, Neuromedin-K receptor (Homo sapiens) (UniProt P29371).
T6 sequence (whole entry): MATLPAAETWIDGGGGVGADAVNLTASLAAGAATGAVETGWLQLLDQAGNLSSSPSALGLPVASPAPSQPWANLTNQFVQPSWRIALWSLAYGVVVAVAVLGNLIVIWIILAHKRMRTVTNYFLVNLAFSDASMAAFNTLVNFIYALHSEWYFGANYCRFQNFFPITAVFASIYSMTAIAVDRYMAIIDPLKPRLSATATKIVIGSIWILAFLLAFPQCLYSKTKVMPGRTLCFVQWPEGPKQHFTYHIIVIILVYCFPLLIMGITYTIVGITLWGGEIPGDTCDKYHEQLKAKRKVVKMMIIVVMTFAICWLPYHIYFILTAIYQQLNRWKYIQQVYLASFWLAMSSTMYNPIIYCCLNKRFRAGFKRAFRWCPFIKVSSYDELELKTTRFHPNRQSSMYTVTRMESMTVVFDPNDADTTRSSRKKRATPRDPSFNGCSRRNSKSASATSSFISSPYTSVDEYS
The experiment is described as follows: Binding affinity towards NK3 receptor.

In experiment [10] the target is Substance-P receptor (Homo sapiens) (UniProt P25103). Put plainly: Binding affinity towards human NK1 receptor.
Experiment [11] deals with T7, Substance-K receptor (Homo sapiens) (UniProt P21452).
T7 sequence (whole entry): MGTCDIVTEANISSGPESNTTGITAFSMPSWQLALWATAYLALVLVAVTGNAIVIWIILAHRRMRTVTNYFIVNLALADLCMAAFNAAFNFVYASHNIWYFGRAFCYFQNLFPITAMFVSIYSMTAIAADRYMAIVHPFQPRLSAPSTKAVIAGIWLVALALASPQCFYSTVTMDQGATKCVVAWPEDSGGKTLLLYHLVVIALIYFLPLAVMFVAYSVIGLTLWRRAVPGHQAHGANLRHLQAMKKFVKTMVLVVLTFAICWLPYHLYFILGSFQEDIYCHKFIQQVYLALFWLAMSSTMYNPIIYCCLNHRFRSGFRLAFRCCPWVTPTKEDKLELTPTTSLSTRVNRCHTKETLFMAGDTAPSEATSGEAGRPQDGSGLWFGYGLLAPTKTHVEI
The experiment is described as follows: Binding affinity towards NK2 receptor.

Experiment [12] concerns the target T8, 5-hydroxytryptamine receptor 1A (Homo sapiens) (UniProt P08908).
T8 sequence (whole entry): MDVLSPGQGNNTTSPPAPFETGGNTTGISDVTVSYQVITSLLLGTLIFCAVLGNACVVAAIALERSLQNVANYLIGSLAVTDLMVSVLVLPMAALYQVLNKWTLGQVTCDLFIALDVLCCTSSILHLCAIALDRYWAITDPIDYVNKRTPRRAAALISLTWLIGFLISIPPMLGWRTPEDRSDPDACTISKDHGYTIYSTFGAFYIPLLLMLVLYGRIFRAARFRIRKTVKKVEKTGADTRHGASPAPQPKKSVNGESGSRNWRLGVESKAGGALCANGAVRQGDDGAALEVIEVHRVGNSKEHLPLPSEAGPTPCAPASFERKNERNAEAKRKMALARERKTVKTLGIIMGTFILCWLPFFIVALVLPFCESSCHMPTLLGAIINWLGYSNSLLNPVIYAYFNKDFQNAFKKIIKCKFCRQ
The experiment is described as follows: Binding affinity towards 5-hydroxytryptamine 1A receptor.

Experiment [13] concerns the target T9, 5-hydroxytryptamine receptor 2C (Homo sapiens) (UniProt P28335).
T9 sequence (whole entry): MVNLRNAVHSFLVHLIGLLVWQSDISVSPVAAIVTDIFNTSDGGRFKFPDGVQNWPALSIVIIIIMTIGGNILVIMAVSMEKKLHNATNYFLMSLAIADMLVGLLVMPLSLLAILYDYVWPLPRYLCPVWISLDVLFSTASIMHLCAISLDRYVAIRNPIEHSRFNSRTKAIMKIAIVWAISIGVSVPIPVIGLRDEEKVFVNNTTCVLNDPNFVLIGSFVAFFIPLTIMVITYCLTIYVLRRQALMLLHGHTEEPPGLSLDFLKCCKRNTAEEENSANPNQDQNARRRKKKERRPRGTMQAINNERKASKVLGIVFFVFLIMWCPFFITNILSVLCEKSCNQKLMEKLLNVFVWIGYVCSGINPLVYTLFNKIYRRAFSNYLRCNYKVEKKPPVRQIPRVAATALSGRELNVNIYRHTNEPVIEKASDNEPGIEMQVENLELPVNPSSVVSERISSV
The experiment is described as follows: Binding affinity towards 5-hydroxytryptamine 2C receptor.

For experiment [14], the target named is 5-hydroxytryptamine receptor 2A (Homo sapiens) (UniProt P28223). Put plainly: Binding affinity towards 5-hydroxytryptamine 2A receptor.
In experiment [15] the target is 5-hydroxytryptamine receptor 6 (Homo sapiens) (UniProt P50406). Put plainly: Binding affinity towards human 5-hydroxytryptamine 6 receptor.
Experiment [16] addresses 5-hydroxytryptamine receptor 7 (Homo sapiens) (UniProt P34969). Put plainly: Binding affinity towards 5-hydroxytryptamine 7 receptor.
For experiment [17], the target named is 5-hydroxytryptamine receptor 5A (Homo sapiens) (UniProt P47898). The experiment is described as follows: Binding affinity towards 5-HT5a receptor.
Experiment [18] has as its target T10, Gonadotropin-releasing hormone receptor (Homo sapiens) (UniProt P30968).
T10 sequence (whole entry): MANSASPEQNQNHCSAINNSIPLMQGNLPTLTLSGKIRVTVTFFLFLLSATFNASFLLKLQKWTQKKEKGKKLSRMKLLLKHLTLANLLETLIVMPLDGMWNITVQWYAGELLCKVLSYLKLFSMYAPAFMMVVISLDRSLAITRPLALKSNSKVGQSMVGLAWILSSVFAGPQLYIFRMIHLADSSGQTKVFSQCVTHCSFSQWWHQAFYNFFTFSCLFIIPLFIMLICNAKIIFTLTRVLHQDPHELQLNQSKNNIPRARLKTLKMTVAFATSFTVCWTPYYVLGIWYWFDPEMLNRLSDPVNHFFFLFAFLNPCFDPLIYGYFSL
Put plainly: Binding affinity towards GnRH receptor.

Experiment [19] has as its target Melanocortin receptor 4 (Homo sapiens) (UniProt P32245). The experiment is described as follows: Binding affinity towards MCR-4 receptor.

5-hydroxytryptamine receptor 7 (Homo sapiens), sequence (P34969 whole entry): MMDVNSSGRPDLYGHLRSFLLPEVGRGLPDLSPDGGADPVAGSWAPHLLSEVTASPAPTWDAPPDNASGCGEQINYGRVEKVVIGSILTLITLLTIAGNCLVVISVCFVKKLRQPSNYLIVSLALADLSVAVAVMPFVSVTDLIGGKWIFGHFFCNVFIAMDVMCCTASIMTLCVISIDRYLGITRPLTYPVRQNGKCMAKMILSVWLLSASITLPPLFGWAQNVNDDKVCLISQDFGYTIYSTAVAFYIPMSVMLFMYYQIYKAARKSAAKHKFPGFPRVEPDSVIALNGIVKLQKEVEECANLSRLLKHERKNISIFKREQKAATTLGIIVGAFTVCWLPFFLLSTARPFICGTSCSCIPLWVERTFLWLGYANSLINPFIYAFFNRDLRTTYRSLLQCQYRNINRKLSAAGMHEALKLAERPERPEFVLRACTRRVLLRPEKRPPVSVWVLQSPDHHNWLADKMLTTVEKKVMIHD
5-hydroxytryptamine receptor 5A (Homo sapiens), sequence (P47898 whole entry): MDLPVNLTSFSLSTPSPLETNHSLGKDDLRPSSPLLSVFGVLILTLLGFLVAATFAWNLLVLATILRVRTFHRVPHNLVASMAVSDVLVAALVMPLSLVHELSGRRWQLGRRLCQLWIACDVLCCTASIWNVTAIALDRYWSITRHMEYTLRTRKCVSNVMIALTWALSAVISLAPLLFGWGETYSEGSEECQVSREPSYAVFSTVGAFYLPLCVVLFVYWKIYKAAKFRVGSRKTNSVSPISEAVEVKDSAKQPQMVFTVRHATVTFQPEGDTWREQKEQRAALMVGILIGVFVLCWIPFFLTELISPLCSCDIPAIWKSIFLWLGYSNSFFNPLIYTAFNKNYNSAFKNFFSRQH
5-hydroxytryptamine receptor 6 (Homo sapiens), sequence (P50406 whole entry): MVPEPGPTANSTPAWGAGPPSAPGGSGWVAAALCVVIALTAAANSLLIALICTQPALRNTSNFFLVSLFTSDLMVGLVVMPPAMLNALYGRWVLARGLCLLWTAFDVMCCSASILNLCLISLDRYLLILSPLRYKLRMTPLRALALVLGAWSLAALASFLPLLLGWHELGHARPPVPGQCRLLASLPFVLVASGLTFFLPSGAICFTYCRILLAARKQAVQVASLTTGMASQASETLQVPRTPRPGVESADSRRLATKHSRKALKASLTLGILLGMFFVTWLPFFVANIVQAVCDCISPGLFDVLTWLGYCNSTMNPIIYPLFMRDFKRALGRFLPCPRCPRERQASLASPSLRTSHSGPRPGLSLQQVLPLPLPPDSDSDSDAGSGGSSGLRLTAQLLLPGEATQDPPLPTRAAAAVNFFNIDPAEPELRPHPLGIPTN
5-hydroxytryptamine receptor 2A (Homo sapiens), sequence (P28223 whole entry): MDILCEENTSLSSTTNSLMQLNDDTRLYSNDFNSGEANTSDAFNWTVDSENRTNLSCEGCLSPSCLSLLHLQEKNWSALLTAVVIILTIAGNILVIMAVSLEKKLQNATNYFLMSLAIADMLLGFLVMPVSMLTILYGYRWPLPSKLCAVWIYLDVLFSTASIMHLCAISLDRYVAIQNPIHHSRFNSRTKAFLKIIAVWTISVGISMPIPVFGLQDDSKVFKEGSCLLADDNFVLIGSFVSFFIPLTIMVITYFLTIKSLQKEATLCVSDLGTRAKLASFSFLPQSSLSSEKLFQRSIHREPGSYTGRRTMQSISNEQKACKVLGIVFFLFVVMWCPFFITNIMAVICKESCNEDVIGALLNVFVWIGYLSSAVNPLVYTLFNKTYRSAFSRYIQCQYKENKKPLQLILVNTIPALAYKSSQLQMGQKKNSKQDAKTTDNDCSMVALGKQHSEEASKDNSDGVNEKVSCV
C-C chemokine receptor type 2 (Homo sapiens), sequence (P41597 whole entry, looked up): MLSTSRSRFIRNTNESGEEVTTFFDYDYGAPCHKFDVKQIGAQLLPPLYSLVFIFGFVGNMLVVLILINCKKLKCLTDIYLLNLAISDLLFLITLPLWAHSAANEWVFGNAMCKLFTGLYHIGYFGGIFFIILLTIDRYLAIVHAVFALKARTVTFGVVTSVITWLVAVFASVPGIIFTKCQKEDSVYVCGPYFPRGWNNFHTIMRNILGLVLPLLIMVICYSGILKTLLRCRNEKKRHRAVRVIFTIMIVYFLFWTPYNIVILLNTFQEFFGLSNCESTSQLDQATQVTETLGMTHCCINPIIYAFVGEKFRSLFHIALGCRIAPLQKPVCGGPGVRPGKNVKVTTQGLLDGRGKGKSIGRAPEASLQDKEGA
C-C chemokine receptor type 5 (Homo sapiens), sequence (P51681 whole entry, looked up): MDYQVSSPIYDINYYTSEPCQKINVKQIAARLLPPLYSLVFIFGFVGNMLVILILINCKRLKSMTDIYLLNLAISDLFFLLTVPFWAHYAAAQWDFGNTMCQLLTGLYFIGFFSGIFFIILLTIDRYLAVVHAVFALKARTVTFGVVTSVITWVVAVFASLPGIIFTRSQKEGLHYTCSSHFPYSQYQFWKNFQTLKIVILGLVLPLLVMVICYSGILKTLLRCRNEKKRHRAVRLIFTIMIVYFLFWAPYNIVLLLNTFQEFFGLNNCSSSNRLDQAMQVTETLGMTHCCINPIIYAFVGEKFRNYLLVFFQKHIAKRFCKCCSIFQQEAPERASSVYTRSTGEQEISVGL
Substance-P receptor (Homo sapiens), sequence (P25103 whole entry): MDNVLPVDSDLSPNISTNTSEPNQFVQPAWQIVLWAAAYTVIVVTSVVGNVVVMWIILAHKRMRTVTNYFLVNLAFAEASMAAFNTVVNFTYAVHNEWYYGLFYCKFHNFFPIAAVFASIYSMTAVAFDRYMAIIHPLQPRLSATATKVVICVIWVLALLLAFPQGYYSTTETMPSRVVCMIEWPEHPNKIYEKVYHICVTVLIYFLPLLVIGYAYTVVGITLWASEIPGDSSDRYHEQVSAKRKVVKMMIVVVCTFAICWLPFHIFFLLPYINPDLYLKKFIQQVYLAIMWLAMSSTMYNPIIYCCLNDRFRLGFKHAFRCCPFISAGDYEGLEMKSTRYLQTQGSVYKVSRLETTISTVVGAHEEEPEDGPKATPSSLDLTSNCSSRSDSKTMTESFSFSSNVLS
Melanocortin receptor 4 (Homo sapiens), sequence (P32245 whole entry): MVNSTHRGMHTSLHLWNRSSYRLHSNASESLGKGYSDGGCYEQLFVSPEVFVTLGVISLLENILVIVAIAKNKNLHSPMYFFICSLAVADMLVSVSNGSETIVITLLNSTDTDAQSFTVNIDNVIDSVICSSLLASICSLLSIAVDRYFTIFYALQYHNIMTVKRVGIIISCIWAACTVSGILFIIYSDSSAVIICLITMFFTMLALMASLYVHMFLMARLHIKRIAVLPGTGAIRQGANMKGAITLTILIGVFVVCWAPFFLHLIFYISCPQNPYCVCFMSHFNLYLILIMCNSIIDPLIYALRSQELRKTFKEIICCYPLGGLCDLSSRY
C-X-C chemokine receptor type 4 (Homo sapiens), sequence (P61073 whole entry): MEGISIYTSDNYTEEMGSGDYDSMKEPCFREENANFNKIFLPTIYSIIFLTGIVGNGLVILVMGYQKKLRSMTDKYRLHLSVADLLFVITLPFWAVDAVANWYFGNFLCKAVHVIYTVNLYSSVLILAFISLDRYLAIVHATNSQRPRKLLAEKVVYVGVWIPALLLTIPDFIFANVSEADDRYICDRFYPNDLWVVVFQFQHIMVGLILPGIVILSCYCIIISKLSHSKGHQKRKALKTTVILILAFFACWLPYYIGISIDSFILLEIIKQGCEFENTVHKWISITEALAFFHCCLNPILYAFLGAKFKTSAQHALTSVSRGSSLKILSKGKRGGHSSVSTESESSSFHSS

`Brc1ccc(-c2[nH]c3ccc4ccccc4c3c2CCCNC2CCC(c3ccccc3)C2)cc1` (stereo not drawn): the Activity in [1] is 1190 nM; in experiment [2] it was above 10 µM; in experiment [3] it was 1520 nM; in [4], above 10 µM; in experiment [5], 920 nM; in experiment [6], above 10 µM.
With `CC(NCCCc1c(-c2cccc(Br)c2)[nH]c2ccccc12)c1ccc(O)cc1` (stereo not drawn), the values for the Activity in experiment [7] and in experiment [8] were above 10 µM and 0.8 nM, respectively.
As for `COc1ccccc1N1CCN(C(=O)CCc2c(-c3ccc(Br)cc3)[nH]c3ccc(C)cc23)CC1`, the Activity in experiment [9] is above 10 µM; in [10] it was 0.8 nM; in experiment [11], above 10 µM.
As to `Brc1ccc(-c2[nH]c3cccc(-c4ccccc4)c3c2CCCN2CCCC2)cc1`, the Activity was above 1 µM in [12]; 60 nM in [13]; 10 nM in experiment [14]; 635 nM in experiment [15]; above 1 µM in experiment [16]; above 1 µM in [17].
On to `CN(C)CCCc1c(-c2cccc(Br)c2)[nH]c2ccccc12`, for which the Activity in experiment [12] was above 1 µM; in experiment [15], 0.7 nM; in experiment [16], 0.3 µM; in experiment [17], above 1 µM.
For the molecule `CCOC(=O)C(C)(C)c1ccc2[nH]c(-c3cc(C)cc(C)c3)c(CCCN3CCC(O)(c4ccccc4)CC3)c2c1`, the Activity in experiment [18] worked out at 52 nM.
The molecule `Cc1ccc2[nH]c(-c3ccc(Br)cc3)c(CCCCCNC3CCCCC3)c2c1` had an Activity in [19] of 612 nM.
